Measured values as given in patent publication US4812409A, “Hydrolyzable fluorescent substrates and analytical determinations using same” (Eastman Kodak Company, priority 1986, dated 1989).

Assays:
Format in all cases: biochemical
carboxylesterase, Type I = experiment: Determination of hydrolytic enzymes: carboxylesterase Type I; conditions: pH 7.8, 25° C., ex 540 nm, em 595 nm
Method: (§1) Test solutions were prepared with the following: 50 μl of substrate (1 mg/μl methanol), […] of 0.05 molar potassium phosphate buffer at the indicated pH (near the optimum for each enzyme) and 10 μl of enzyme. Enzymes to be determined included carboxylesterase, Type I (pH 7.8) and Type II (pH 6.0), aminoacylase, Grade I (pH 7.0), and trypsin, Type I and III (pH 7.8). Sample preparations and testing were done in an area protected from light. The enzyme solutions were kept at 0° C. prior to use, and assays were run at 25° C. with fluorescence measured at an excitation of 540 nm and an emission of 595 nm.

aminoacylase, Grade I = target: T1, aminoacylase, Grade I (Sus scrofa, UniProt P37111); experiment: Determination of hydrolytic enzymes: aminoacylase Grade I; conditions: Final Enzyme Activity 3,000 I.U., pH 7.0, 25° C., ex 540 nm, em 595 nm
T1 sequence (P37111 2-407 limits assumed): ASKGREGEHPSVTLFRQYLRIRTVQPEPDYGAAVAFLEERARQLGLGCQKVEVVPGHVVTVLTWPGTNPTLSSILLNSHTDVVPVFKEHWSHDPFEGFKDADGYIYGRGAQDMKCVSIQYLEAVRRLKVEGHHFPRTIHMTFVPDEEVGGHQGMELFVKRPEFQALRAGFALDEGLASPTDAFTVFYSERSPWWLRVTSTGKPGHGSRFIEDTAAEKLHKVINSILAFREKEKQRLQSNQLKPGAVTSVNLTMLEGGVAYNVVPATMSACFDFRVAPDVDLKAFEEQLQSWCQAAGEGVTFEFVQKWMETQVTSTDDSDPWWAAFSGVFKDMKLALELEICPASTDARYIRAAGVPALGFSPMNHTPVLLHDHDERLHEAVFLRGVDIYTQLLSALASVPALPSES
Method: as §1

trypsin, Type III = target: T2, trypsin, Type III (Bos taurus, UniProt P00760); experiment: Determination of hydrolytic enzymes: trypsin Type III; conditions: pH 7.8, 25° C., ex 540 nm, em 595 nm
T2 sequence (P00760 24-246): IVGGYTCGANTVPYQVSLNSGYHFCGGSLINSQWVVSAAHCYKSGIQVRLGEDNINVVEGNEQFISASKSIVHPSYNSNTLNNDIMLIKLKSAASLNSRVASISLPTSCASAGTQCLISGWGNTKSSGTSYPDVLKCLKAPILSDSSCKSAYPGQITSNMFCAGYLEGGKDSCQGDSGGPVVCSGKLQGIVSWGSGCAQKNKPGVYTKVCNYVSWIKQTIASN
Method: as §1

[1] = system: carboxylesterase, Type II; experiment: Determination of hydrolytic enzymes: carboxylesterase Type II; conditions: Final Enzyme Activity 15 I.U., pH 6.0, 25° C., ex 540 nm, em 595 nm
Method: as §1

trypsin, Type I = target: T3, trypsin, Type I (Bos taurus, UniProt P00760); experiment: Determination of hydrolytic enzymes: trypsin Type I; conditions: pH 7.8, 25° C., ex 540 nm, em 595 nm
T3 sequence (P00760 24-246): T2 sequence (P00760 24-246)
Method: as §1

Relative Fluorescence (minus control with no enzyme) (carboxylesterase, Type I; Final Enzyme Activity 9.6 I.U., 0 Min): 2.7
Relative Fluorescence (minus control with no enzyme) (carboxylesterase, Type I; Final Enzyme Activity 9.6 I.U., 10 Min): 3.6
Relative Fluorescence (minus control with no enzyme) (carboxylesterase, Type I; Final Enzyme Activity 9.6 I.U., 15 Min): 4.1
Relative Fluorescence (minus control with no enzyme) (carboxylesterase, Type I; Final Enzyme Activity 9.6 I.U., 30 Min): 4.4
Relative Fluorescence (minus control with no enzyme) (carboxylesterase, Type I; Final Enzyme Activity 96 I.U., 0 Min): 3.0
Relative Fluorescence (minus control with no enzyme) (carboxylesterase, Type I; Final Enzyme Activity 96 I.U., 10 Min): 6.1
Relative Fluorescence (minus control with no enzyme) (carboxylesterase, Type I; Final Enzyme Activity 96 I.U., 15 Min): 7.9
Relative Fluorescence (minus control with no enzyme) (carboxylesterase, Type I; Final Enzyme Activity 96 I.U., 30 Min): 12.5
Relative Fluorescence (minus control with no enzyme) (aminoacylase, Grade I; 0 Min): 1.5
Relative Fluorescence (minus control with no enzyme) (aminoacylase, Grade I; 10 Min): 2.0
Relative Fluorescence (minus control with no enzyme) (aminoacylase, Grade I; 15 Min): 2.1
Relative Fluorescence (minus control with no enzyme) (aminoacylase, Grade I; 30 Min): 2.3
Relative Fluorescence (minus control with no enzyme) (trypsin, Type III; Final Enzyme Activity 6,000 I.U., 0 Min): 2.7
Relative Fluorescence (minus control with no enzyme) (trypsin, Type III; Final Enzyme Activity 6,000 I.U., 10 Min): 2.8
Relative Fluorescence (minus control with no enzyme) (trypsin, Type III; Final Enzyme Activity 6,000 I.U., 15 Min): 3.0
Relative Fluorescence (minus control with no enzyme) (trypsin, Type III; Final Enzyme Activity 6,000 I.U., 30 Min): 3.6
Relative Fluorescence (minus control with no enzyme) (trypsin, Type III; Final Enzyme Activity 60,000 I.U., 0 Min): 2.2
Relative Fluorescence (minus control with no enzyme) (trypsin, Type III; Final Enzyme Activity 60,000 I.U., 10 Min): 3.5
Relative Fluorescence (minus control with no enzyme) (trypsin, Type III; Final Enzyme Activity 60,000 I.U., 15 Min): 3.4
Relative Fluorescence (minus control with no enzyme) (trypsin, Type III; Final Enzyme Activity 60,000 I.U., 30 Min): 4.3
Relative Fluorescence (minus control with no enzyme) ([1]; 0 Min): 2.0
Relative Fluorescence (minus control with no enzyme) ([1]; 10 Min): 5.4
Relative Fluorescence (minus control with no enzyme) ([1]; 15 Min): 8.0
Relative Fluorescence (minus control with no enzyme) ([1]; 30 Min): 15.8
Relative Fluorescence (minus control with no enzyme) (trypsin, Type I; Final Enzyme Activity 5,000 I.U., 0 Min): 0
Relative Fluorescence (minus control with no enzyme) (trypsin, Type I; Final Enzyme Activity 5,000 I.U., 10 Min): 0.5
Relative Fluorescence (minus control with no enzyme) (trypsin, Type I; Final Enzyme Activity 5,000 I.U., 15 Min): 0.6
Relative Fluorescence (minus control with no enzyme) (trypsin, Type I; Final Enzyme Activity 5,000 I.U., 30 Min): 0.8
Relative Fluorescence (minus control with no enzyme) (trypsin, Type I; Final Enzyme Activity 50,000 I.U., 0 Min): 0
Relative Fluorescence (minus control with no enzyme) (trypsin, Type I; Final Enzyme Activity 50,000 I.U., 10 Min): 0.7
Relative Fluorescence (minus control with no enzyme) (trypsin, Type I; Final Enzyme Activity 50,000 I.U., 15 Min): 0.9
Relative Fluorescence (minus control with no enzyme) (trypsin, Type I; Final Enzyme Activity 50,000 I.U., 30 Min): 1.5
Structure (SMILES): CC(=O)Nc1ccc2c3c(cccc13)C(=O)C=C2 [Example 5]
